Data from publication PMC3445516 (PLoS ONE, 2012).

Experiments:
Experiment in all cases: Ambit kinase profiling, competition binding
[1] = molecular target: T1, CDKL2 (Homo sapiens, UniProt Q92772); settings: compound concentration 10 uM, read-out: Percent Competition
T1 construct: purchased Ambit Biosciences (KINOMEscan)
Excerpt: (§1) Supplement pone.0044653.s004.xls, sheet "Compound 122" | column: Percent Competition

[2] = molecular target: T2, RPS6KA4(Kin.Dom.2-C-terminal) (Homo sapiens, UniProt O75676); settings: compound concentration 10 uM, read-out: Percent Competition
T2 construct: RPS6KA4(Kin.Dom.2-C-terminal); purchased Ambit Biosciences (KINOMEscan)
Excerpt: as §1

[3] = molecular target: T3, ARK5 (Homo sapiens, UniProt O60285); settings: compound concentration 10 uM
T3 construct: purchased Ambit Biosciences (KINOMEscan)
Excerpt: as §1

[4] = molecular target: T4, DCAMKL2 (Homo sapiens, UniProt Q8N568); settings: compound concentration 10 uM, read-out: Percent Competition
T4 construct: purchased Ambit Biosciences (KINOMEscan)
T4 sequence (Q8N568 whole entry): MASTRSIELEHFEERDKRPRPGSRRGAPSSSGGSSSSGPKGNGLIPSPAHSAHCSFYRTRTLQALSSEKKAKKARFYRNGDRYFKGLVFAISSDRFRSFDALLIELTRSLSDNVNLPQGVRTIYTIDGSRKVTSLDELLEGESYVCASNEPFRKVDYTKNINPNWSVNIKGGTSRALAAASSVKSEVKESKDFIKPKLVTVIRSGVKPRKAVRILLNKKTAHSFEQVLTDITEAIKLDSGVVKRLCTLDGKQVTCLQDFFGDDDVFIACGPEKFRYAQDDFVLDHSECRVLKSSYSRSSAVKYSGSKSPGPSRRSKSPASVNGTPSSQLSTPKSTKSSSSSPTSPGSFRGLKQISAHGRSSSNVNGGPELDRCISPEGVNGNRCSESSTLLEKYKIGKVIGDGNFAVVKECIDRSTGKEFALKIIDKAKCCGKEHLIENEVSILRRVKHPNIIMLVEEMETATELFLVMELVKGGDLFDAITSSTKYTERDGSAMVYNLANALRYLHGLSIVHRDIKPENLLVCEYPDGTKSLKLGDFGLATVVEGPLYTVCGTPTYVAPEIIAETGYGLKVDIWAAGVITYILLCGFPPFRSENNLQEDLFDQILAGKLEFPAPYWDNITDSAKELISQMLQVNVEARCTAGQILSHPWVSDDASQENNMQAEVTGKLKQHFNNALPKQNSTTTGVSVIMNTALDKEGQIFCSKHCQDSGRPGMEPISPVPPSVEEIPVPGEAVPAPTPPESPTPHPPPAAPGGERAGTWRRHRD
Excerpt: as §1

[5] = molecular target: T5, LIMK2 (Homo sapiens, UniProt P53671); settings: compound concentration 10 uM, read-out: Percent Competition
T5 construct: purchased Ambit Biosciences (KINOMEscan)
Excerpt: as §1

[6] = molecular target: T6, PAK3 (Homo sapiens, UniProt O75914); settings: compound concentration 10 uM, read-out: Percent Competition
T6 construct: purchased Ambit Biosciences (KINOMEscan)
Excerpt: as §1

[7] = molecular target: T7, MARK1 (Homo sapiens, UniProt Q9P0L2); settings: compound concentration 10 uM, read-out: Percent Competition
T7 construct: purchased Ambit Biosciences (KINOMEscan)
Excerpt: as §1

[8] = molecular target: T8, LOK (Homo sapiens, UniProt O94804); settings: compound concentration 10 uM
T8 construct: purchased Ambit Biosciences (KINOMEscan)
T8 sequence (O94804 whole entry): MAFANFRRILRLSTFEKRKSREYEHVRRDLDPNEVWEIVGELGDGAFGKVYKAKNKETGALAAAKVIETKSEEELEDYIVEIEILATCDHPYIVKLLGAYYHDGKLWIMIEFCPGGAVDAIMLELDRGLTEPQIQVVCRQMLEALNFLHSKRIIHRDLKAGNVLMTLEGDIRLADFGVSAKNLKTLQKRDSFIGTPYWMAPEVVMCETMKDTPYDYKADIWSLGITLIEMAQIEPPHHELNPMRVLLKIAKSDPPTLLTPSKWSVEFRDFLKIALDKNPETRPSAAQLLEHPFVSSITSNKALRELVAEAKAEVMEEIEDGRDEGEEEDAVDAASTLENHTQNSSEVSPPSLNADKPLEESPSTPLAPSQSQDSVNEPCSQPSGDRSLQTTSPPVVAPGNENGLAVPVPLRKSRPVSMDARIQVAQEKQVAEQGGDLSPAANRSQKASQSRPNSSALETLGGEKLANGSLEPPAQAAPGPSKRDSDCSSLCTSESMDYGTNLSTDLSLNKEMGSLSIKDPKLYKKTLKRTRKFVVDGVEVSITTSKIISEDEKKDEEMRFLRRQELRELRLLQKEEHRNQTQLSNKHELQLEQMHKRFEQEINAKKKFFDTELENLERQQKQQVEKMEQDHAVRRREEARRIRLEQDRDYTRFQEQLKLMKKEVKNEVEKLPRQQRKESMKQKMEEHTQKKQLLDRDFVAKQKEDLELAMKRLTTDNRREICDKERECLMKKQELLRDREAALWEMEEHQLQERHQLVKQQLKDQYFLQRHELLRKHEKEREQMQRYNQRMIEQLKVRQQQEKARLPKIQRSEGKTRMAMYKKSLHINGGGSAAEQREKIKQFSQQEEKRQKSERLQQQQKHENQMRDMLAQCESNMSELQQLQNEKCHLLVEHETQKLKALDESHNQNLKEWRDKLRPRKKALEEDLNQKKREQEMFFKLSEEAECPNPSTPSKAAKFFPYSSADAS
Excerpt: as §1

[9] = molecular target: T9, ABL2 (Homo sapiens, UniProt P42684); settings: compound concentration 10 uM, read-out: Percent Competition
T9 construct: purchased Ambit Biosciences (KINOMEscan)
Excerpt: as §1

[10] = molecular target: T10, TRKA (Homo sapiens, UniProt P04629); settings: compound concentration 10 uM, read-out: Percent Competition
T10 construct: purchased Ambit Biosciences (KINOMEscan)
Excerpt: as §1

[11] = molecular target: T11, CDK8 (Homo sapiens, UniProt P49336); settings: compound concentration 10 uM
T11 construct: purchased Ambit Biosciences (KINOMEscan)
Excerpt: as §1

[12] = molecular target: T12, WEE2 (Homo sapiens, UniProt P0C1S8); settings: compound concentration 10 uM, read-out: Percent Competition
T12 construct: purchased Ambit Biosciences (KINOMEscan)
Excerpt: as §1

[13] = molecular target: T13, RPS6KA2(Kin.Dom.1-N-terminal) (Homo sapiens, UniProt Q15349); settings: compound concentration 10 uM, read-out: Percent Competition
T13 construct: RPS6KA2(Kin.Dom.1-N-terminal); purchased Ambit Biosciences (KINOMEscan)
Excerpt: as §1

[14] = molecular target: T14, LTK (Homo sapiens, UniProt P29376); settings: compound concentration 10 uM, read-out: Percent Competition
T14 construct: purchased Ambit Biosciences (KINOMEscan)
Excerpt: as §1

[15] = molecular target: T15, TLK1 (Homo sapiens, UniProt Q9UKI8); settings: compound concentration 10 uM, read-out: Percent Competition
T15 construct: purchased Ambit Biosciences (KINOMEscan)
Excerpt: as §1

[16] = molecular target: T16, MKNK2 (Homo sapiens, UniProt Q9HBH9); settings: compound concentration 10 uM, read-out: Percent Competition
T16 construct: purchased Ambit Biosciences (KINOMEscan)
T16 sequence (Q9HBH9 whole entry): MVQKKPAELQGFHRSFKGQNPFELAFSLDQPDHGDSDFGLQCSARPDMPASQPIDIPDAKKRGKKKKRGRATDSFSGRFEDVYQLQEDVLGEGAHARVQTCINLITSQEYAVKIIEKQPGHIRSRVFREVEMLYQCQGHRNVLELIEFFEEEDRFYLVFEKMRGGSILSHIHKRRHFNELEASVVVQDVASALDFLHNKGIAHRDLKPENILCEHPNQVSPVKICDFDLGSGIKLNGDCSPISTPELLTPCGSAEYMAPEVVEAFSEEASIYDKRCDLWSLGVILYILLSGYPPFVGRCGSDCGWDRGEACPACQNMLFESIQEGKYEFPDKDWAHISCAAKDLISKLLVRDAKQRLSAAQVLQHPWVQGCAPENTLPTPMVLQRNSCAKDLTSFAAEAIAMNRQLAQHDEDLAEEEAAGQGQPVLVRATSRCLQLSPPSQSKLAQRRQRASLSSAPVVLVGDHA
Excerpt: as §1

[17] = molecular target: T17, PRKR (Homo sapiens, UniProt P19525); settings: compound concentration 10 uM
T17 construct: purchased Ambit Biosciences (KINOMEscan)
Excerpt: as §1

[18] = molecular target: T18, AKT2 (Homo sapiens, UniProt P31751); settings: compound concentration 10 uM, read-out: Percent Competition
T18 construct: purchased Ambit Biosciences (KINOMEscan)
Excerpt: as §1

[19] = molecular target: T19, CDK11 (Homo sapiens, UniProt Q9BWU1); settings: compound concentration 10 uM
T19 construct: purchased Ambit Biosciences (KINOMEscan)
Excerpt: as §1

[20] = molecular target: T20, TESK1 (Homo sapiens, UniProt Q15569); settings: compound concentration 10 uM, read-out: Percent Competition
T20 construct: purchased Ambit Biosciences (KINOMEscan)
Excerpt: as §1

[21] = molecular target: T21, KIT(V559D,V654A) (Homo sapiens, UniProt P10721, V559D/V654A); settings: compound concentration 10 uM, read-out: Percent Competition
T21 construct: purchased Ambit Biosciences (KINOMEscan)
Excerpt: as §1

[22] = molecular target: T22, TXK (Homo sapiens, UniProt P42681); settings: compound concentration 10 uM, read-out: Percent Competition
T22 construct: purchased Ambit Biosciences (KINOMEscan)
Excerpt: as §1

[23] = molecular target: T23, BRK (Homo sapiens, UniProt Q13882); settings: compound concentration 10 uM, read-out: Percent Competition
T23 construct: purchased Ambit Biosciences (KINOMEscan)
Excerpt: as §1

[24] = molecular target: T24, VEGFR2 (Homo sapiens, UniProt P35968); settings: compound concentration 10 uM, read-out: Percent Competition
T24 construct: purchased Ambit Biosciences (KINOMEscan)
Excerpt: as §1

[25] = molecular target: T25, NEK6 (Homo sapiens, UniProt Q9HC98); settings: compound concentration 10 uM, read-out: Percent Competition
T25 construct: purchased Ambit Biosciences (KINOMEscan)
T25 sequence (Q9HC98 whole entry): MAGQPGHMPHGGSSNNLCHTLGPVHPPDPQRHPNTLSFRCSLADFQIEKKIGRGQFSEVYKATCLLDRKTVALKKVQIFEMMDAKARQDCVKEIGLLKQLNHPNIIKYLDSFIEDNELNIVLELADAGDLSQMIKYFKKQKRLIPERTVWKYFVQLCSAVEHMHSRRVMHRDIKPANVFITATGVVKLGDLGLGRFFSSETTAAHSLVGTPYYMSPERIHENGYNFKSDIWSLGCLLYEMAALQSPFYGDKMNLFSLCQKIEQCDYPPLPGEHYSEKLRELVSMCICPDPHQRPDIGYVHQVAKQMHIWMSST
Excerpt: as §1

[26] = molecular target: T26, FGFR2 (Homo sapiens, UniProt P21802); settings: compound concentration 10 uM, read-out: Percent Competition
T26 construct: purchased Ambit Biosciences (KINOMEscan)
Excerpt: as §1

[27] = molecular target: T27, PAK6 (Homo sapiens, UniProt Q9NQU5); settings: compound concentration 10 uM, read-out: Percent Competition
T27 construct: purchased Ambit Biosciences (KINOMEscan)
Excerpt: as §1

[28] = molecular target: T28, DMPK (Homo sapiens, UniProt Q09013); settings: compound concentration 10 uM, read-out: Percent Competition
T28 construct: purchased Ambit Biosciences (KINOMEscan)
T28 sequence (Q09013 whole entry): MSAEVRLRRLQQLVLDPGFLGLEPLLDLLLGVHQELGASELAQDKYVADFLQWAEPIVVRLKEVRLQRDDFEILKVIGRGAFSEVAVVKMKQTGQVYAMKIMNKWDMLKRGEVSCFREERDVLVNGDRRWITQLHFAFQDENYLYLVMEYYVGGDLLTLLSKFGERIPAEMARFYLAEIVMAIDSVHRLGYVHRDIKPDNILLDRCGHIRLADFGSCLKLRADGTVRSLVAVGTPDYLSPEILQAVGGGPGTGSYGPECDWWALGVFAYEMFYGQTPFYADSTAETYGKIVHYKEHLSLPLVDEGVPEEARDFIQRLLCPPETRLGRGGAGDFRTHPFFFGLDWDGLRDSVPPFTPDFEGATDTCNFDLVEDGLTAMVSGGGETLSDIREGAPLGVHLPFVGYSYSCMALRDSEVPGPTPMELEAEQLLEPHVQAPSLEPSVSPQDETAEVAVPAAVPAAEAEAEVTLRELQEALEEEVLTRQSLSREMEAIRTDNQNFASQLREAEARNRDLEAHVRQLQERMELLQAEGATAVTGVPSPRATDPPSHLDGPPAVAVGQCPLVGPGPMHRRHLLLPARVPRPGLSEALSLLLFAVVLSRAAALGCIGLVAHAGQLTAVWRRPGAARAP
Excerpt: as §1

[29] = molecular target: T29, MERTK (Homo sapiens, UniProt Q12866); settings: compound concentration 10 uM, read-out: Percent Competition
T29 construct: purchased Ambit Biosciences (KINOMEscan)
T29 sequence (Q12866 21-999): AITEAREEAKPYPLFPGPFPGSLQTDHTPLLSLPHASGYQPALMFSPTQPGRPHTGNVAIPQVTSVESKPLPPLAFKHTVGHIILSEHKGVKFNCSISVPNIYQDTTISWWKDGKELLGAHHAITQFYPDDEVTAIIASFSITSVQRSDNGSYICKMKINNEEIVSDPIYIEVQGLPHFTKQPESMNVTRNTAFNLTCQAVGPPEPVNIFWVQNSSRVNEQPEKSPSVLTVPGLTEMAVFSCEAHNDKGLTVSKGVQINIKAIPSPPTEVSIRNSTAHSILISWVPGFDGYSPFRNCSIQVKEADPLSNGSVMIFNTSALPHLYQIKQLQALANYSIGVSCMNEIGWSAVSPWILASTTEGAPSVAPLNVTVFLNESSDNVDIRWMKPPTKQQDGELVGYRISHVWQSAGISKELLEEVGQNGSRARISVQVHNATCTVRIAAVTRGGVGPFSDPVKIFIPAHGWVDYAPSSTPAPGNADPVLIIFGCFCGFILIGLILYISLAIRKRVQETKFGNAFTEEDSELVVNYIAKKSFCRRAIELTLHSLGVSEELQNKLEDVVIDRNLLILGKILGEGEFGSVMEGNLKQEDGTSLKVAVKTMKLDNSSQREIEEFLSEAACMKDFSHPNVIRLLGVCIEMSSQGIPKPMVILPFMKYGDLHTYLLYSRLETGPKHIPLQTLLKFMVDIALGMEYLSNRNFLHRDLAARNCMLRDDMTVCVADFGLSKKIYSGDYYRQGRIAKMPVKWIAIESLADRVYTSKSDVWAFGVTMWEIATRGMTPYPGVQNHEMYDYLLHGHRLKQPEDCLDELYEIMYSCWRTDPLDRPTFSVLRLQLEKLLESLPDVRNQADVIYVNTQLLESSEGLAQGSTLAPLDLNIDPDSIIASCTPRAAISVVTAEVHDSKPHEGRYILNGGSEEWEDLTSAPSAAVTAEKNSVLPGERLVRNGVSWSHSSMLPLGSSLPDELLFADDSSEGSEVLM
Excerpt: as §1

[30] = molecular target: T30, PIK3C2B (Homo sapiens, UniProt O00750); settings: compound concentration 10 uM, read-out: Percent Competition
T30 construct: purchased Ambit Biosciences (KINOMEscan)
Excerpt: as §1

[31] = molecular target: T31, CSF1R (Homo sapiens, UniProt P07333); settings: compound concentration 10 uM, read-out: Percent Competition
T31 construct: purchased Ambit Biosciences (KINOMEscan)
Excerpt: as §1

[32] = molecular target: T32, IGF1R (Homo sapiens, UniProt P08069); settings: compound concentration 10 uM, read-out: Percent Competition
T32 construct: purchased Ambit Biosciences (KINOMEscan)
Excerpt: as §1

[33] = molecular target: T33, MAP4K5 (Homo sapiens, UniProt Q9Y4K4); settings: compound concentration 10 uM, read-out: Percent Competition
T33 construct: purchased Ambit Biosciences (KINOMEscan)
T33 sequence (Q9Y4K4 whole entry): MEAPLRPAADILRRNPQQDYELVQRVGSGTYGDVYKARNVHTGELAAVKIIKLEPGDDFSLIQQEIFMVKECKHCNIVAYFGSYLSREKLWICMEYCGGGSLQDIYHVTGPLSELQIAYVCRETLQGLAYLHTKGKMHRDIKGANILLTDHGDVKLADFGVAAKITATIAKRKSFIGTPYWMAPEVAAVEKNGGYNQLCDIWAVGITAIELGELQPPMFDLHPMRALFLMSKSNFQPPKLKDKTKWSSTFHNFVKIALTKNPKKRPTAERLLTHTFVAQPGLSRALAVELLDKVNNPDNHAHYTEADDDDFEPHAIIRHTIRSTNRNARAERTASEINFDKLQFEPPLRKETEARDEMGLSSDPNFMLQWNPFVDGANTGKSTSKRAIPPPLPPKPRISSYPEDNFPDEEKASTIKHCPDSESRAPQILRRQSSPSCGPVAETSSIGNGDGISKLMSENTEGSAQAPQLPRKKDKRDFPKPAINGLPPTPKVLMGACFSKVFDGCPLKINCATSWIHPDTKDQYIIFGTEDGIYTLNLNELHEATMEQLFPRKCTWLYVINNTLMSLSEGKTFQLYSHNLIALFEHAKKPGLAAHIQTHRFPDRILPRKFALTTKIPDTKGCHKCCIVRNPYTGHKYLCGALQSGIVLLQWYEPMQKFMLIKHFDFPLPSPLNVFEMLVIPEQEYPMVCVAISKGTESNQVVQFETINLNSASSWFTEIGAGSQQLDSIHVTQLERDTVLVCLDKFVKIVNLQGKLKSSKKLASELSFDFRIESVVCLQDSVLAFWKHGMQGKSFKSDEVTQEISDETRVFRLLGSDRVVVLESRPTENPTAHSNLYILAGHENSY
Excerpt: as §1

[34] = molecular target: T34, AURKB (Homo sapiens, UniProt Q96GD4); settings: compound concentration 10 uM, read-out: Percent Competition
T34 construct: purchased Ambit Biosciences (KINOMEscan)
Excerpt: as §1

[35] = molecular target: T35, ABL1 (Homo sapiens, UniProt P00519); settings: compound concentration 10 uM, read-out: Percent Competition
T35 construct: purchased Ambit Biosciences (KINOMEscan)
Excerpt: as §1

[36] = molecular target: T36, ASK1 (Homo sapiens, UniProt Q99683); settings: compound concentration 10 uM, read-out: Percent Competition
T36 construct: purchased Ambit Biosciences (KINOMEscan)
Excerpt: as §1

[37] = molecular target: T37, JAK3(JH1domain-catalytic) (Homo sapiens, UniProt P52333); settings: compound concentration 10 uM, read-out: Percent Competition
T37 construct: JAK3(JH1domain-catalytic); purchased Ambit Biosciences (KINOMEscan)
Excerpt: as §1

[38] = molecular target: T38, MARK4 (Homo sapiens, UniProt Q96L34); settings: compound concentration 10 uM
T38 construct: purchased Ambit Biosciences (KINOMEscan)
Excerpt: as §1

[39] = molecular target: T39, LIMK1 (Homo sapiens, UniProt P53667); settings: compound concentration 10 uM, read-out: Percent Competition
T39 construct: purchased Ambit Biosciences (KINOMEscan)
Excerpt: as §1

[40] = molecular target: T40, DCAMKL1 (Homo sapiens, UniProt O15075); settings: compound concentration 10 uM
T40 construct: purchased Ambit Biosciences (KINOMEscan)
Excerpt: as §1

Fc1ccc(-c2c(-c3ccncc3)[nH]c3nccnc23)cc1 [RO1155697-000-005]
< 50%: inhibition at 10 µM [1] | inhibition at 10 µM [2] | inhibition at 10 µM [4] | inhibition at 10 µM [5] | inhibition at 10 µM [6] | inhibition at 10 µM [7] | inhibition at 10 µM [9] | inhibition at 10 µM [10] | inhibition at 10 µM [12] | inhibition at 10 µM [13] | inhibition at 10 µM [14] | inhibition at 10 µM [15] | inhibition at 10 µM [16] | inhibition at 10 µM [18] | inhibition at 10 µM [20] | inhibition at 10 µM [21] | inhibition at 10 µM [22] | inhibition at 10 µM [23] | inhibition at 10 µM [24] | inhibition at 10 µM [25] | inhibition at 10 µM [26] | inhibition at 10 µM [27] | inhibition at 10 µM [28] | inhibition at 10 µM [29] | inhibition at 10 µM [30] | inhibition at 10 µM [31] | inhibition at 10 µM [32] | inhibition at 10 µM [33] | inhibition at 10 µM [34] | inhibition at 10 µM [35] | inhibition at 10 µM [36] | inhibition at 10 µM [37] | inhibition at 10 µM [39]
<50%: Percent Competition [3] | Percent Competition [8] | Percent Competition [11] | Percent Competition [17] | Percent Competition [19] | Percent Competition [38] | Percent Competition [40]
